Our source for the solubility (mole fraction) values is BigSolDB 2.1.

In general, solubility (mole fraction) refers to the moles of solute divided by all moles in the saturated solution. `Nc1ccc(S(=O)(=O)Nc2cc(Cl)ccc2Cl)cc1`: the solubility (mole fraction) stood at 0.000347 (in n-octanol, 290.15 K); 0.000412 (in n-octanol, 298.15 K); 0.000529 (in n-octanol, 303.15 K); 0.000667 (in n-octanol, 310.15 K); 0.00089 (in n-octanol, 315.15 K); 6.12e-07 (in water, 293.15 K). Further, the solubility (mole fraction) is 7.25e-07 (in water, 298.15 K); 8.98e-07 (in water, 303.15 K); 1.03e-06 (in water, 310.15 K); 1.24e-06 (in water, 315.15 K).

In the case of `Cc1cc(N)ccc1S(=O)(=O)Nc1ccccc1Cl`, the solubility (mole fraction) by setting is: (in n-octanol, 293.15 K) 8.97e-05; (in n-octanol, 298.15 K) 0.000115; (in n-octanol, 303.15 K) 0.000143; (in n-octanol, 310.15 K) 0.000192; (in n-octanol, 315.15 K) 0.000242; (in water, 293.15 K) 1.39e-07. Also, the solubility (mole fraction) (in water, 298.15 K) was 1.57e-07; the solubility (mole fraction) (in water, 303.15 K) was found to be 1.74e-07; the solubility (mole fraction) (in water, 310.15 K) was 2.07e-07; the solubility (mole fraction) (in water, 315.15 K) worked out at 2.32e-07.

Regarding `Nc1ccc(S(=O)(=O)Nc2ccc(Cl)cc2)cc1`, the solubility (mole fraction) amounted to 0.00126 (in n-octanol, 290.15 K); 0.00132 (in n-octanol, 298.15 K); 0.00145 (in n-octanol, 303.15 K); 0.00153 (in n-octanol, 310.15 K); 0.00167 (in n-octanol, 315.15 K); 9.2e-07 (in water, 293.15 K). Also, the solubility (mole fraction) runs as follows: (in water, 298.15 K) 1.19e-06; (in water, 303.15 K) 1.51e-06; (in water, 310.15 K) 2.02e-06; (in water, 315.15 K) 2.84e-06.

`Nc1ccc(S(=O)(=O)Nc2ccc(Cl)c(Cl)c2)cc1` had a solubility (mole fraction) (in n-octanol, 290.15 K) of 0.000317; a solubility (mole fraction) (in n-octanol, 298.15 K) of 0.000356; a solubility (mole fraction) (in n-octanol, 303.15 K) of 0.000422; a solubility (mole fraction) (in n-octanol, 310.15 K) of 0.000501; a solubility (mole fraction) (in n-octanol, 315.15 K) of 0.000617; a solubility (mole fraction) (in water, 293.15 K) of 1.67e-07. The solubility (mole fraction) by setting is: (in water, 298.15 K) 2.05e-07; (in water, 303.15 K) 2.48e-07; (in water, 310.15 K) 3.26e-07; (in water, 315.15 K) 3.89e-07.

As to `Cc1ccc(Cl)cc1NS(=O)(=O)c1ccc(N)cc1`, the solubility (mole fraction) runs as follows: (in n-octanol, 293.15 K) 0.00153; (in n-octanol, 298.15 K) 0.00188; (in n-octanol, 303.15 K) 0.00221; (in n-octanol, 310.15 K) 0.00273; (in n-octanol, 315.15 K) 0.00323; (in water, 295.15 K) 6.16e-07. Further, the solubility (mole fraction) runs as follows: (in water, 298.15 K) 7.72e-07; (in water, 303.15 K) 1.03e-06; (in water, 310.15 K) 1.51e-06; (in water, 315.15 K) 2.12e-06.

As to `Nc1ccc(S(=O)(=O)Nc2cc(Cl)c(Cl)cc2Cl)cc1`, the solubility (mole fraction) was found to be 0.00097 (in n-octanol, 293.15 K); 0.00109 (in n-octanol, 298.15 K); 0.00118 (in n-octanol, 303.15 K); 0.00146 (in n-octanol, 310.15 K); 0.00179 (in n-octanol, 315.15 K); 2.22e-07 (in water, 293.15 K). Also, the solubility (mole fraction) by setting is: (in water, 298.15 K) 2.51e-07; (in water, 303.15 K) 2.74e-07; (in water, 310.15 K) 3.07e-07; (in water, 315.15 K) 3.33e-07.

Consider `Cc1ccc(NS(=O)(=O)c2ccc(N)cc2)c(Cl)c1`, for which the solubility (mole fraction) by setting is: (in n-octanol, 293.15 K) 0.00133; (in n-octanol, 298.15 K) 0.00158; (in n-octanol, 303.15 K) 0.0018; (in n-octanol, 310.15 K) 0.00221; (in n-octanol, 315.15 K) 0.00259; (in water, 295.15 K) 7.06e-07. Moreover, the solubility (mole fraction) reads like this: (in water, 298.15 K) 7.65e-07; (in water, 303.15 K) 9.36e-07; (in water, 310.15 K) 1.18e-06; (in water, 315.15 K) 1.45e-06.

Take `Cc1cc(N)ccc1S(=O)(=O)Nc1ccccc1[N+](=O)[O-]`: the solubility (mole fraction) reads like this: (in n-octanol, 293.15 K) 0.000152; (in n-octanol, 298.15 K) 0.000198; (in n-octanol, 303.15 K) 0.000247; (in n-octanol, 310.15 K) 0.000345; (in n-octanol, 315.15 K) 0.000449; (in water, 293.15 K) 4.41e-07. Besides, the solubility (mole fraction) was determined as 5.17e-07 (in water, 298.15 K); 5.79e-07 (in water, 303.15 K); 8.02e-07 (in water, 310.15 K); 9.35e-07 (in water, 315.15 K).

Turning to `Cc1cc(Cl)ccc1NS(=O)(=O)c1ccc(N)cc1`, the solubility (mole fraction) stood at 0.00426 (in n-octanol, 293.15 K); 0.00489 (in n-octanol, 298.15 K); 0.00556 (in n-octanol, 303.15 K); 0.00675 (in n-octanol, 310.15 K); 0.00786 (in n-octanol, 315.15 K); 1.25e-06 (in water, 293.15 K). Moreover, the solubility (mole fraction) stood at 1.61e-06 (in water, 298.15 K); 2.11e-06 (in water, 303.15 K); 3.08e-06 (in water, 310.15 K); 3.74e-06 (in water, 315.15 K).

Regarding `Nc1ccc(S(=O)(=O)Nc2ccc(Cl)cc2)c(Cl)c1`, the solubility (mole fraction) by setting is: (in n-octanol, 293.15 K) 0.0021; (in n-octanol, 298.15 K) 0.00248; (in n-octanol, 303.15 K) 0.00287; (in n-octanol, 310.15 K) 0.00349; (in n-octanol, 315.15 K) 0.00391; (in water, 293.15 K) 4.05e-07. Also, the solubility (mole fraction) by setting is: (in water, 298.15 K) 4.72e-07; (in water, 303.15 K) 5.62e-07; (in water, 310.15 K) 6.86e-07; (in water, 315.15 K) 8.12e-07.

Take `Cc1ccc(NS(=O)(=O)c2ccc(N)cc2)cc1Cl`: the solubility (mole fraction) is 0.000491 (in n-octanol, 293.15 K); 0.000552 (in n-octanol, 298.15 K); 0.00064 (in n-octanol, 303.15 K); 0.000801 (in n-octanol, 310.15 K); 0.000897 (in n-octanol, 315.15 K); 1.26e-07 (in water, 293.15 K). In addition, the solubility (mole fraction) (in water, 298.15 K) turned out to be 1.53e-07; the solubility (mole fraction) (in water, 303.15 K) is 1.79e-07; the solubility (mole fraction) (in water, 310.15 K) amounted to 2.25e-07; the solubility (mole fraction) (in water, 315.15 K) turned out to be 2.56e-07.

In the case of `Nc1ccc(S(=O)(=O)Nc2ccccc2Cl)c(Cl)c1`, the solubility (mole fraction) was 5.85e-05 (in n-octanol, 293.15 K); 7.4e-05 (in n-octanol, 298.15 K); 9.37e-05 (in n-octanol, 303.15 K); 0.000128 (in n-octanol, 310.15 K); 0.000164 (in n-octanol, 315.15 K); 1.05e-07 (in water, 293.15 K). Also, the solubility (mole fraction) was 1.19e-07 (in water, 298.15 K); 1.35e-07 (in water, 303.15 K); 1.55e-07 (in water, 310.15 K); 1.75e-07 (in water, 315.15 K).

Turning to `Cc1cc(N)ccc1S(=O)(=O)Nc1ccc(Cl)cc1`, the solubility (mole fraction) reads like this: (in n-octanol, 293.15 K) 0.00319; (in n-octanol, 298.15 K) 0.00356; (in n-octanol, 303.15 K) 0.00393; (in n-octanol, 310.15 K) 0.00465; (in n-octanol, 315.15 K) 0.00519; (in water, 293.15 K) 4.79e-07. The molecule also yielded a solubility (mole fraction) (in water, 298.15 K) of 6.71e-07; a solubility (mole fraction) (in water, 303.15 K) of 9.04e-07; a solubility (mole fraction) (in water, 310.15 K) of 1.35e-06; a solubility (mole fraction) (in water, 315.15 K) of 1.68e-06.
